Like-named read-outs stand apart in the source and are kept apart here.
System: patients with acute coronary syndromes undergoing PCI
[1] = 48-hour, MITT Without STEMI, exploratory

Q: `COC(=O)[C@H](c1ccccc1Cl)N1CCc2sccc2C1` [Clopidogrel, clopidogrel, reference compound] was tested. Which All-cause mortality (48-hour, MITT Without STEMI) did it give?
A: 5 (0.1)

Q: What about the IDR (48-hour, MITT Without STEMI) of the same compound?
A: 23 (0.6)

Q: And the MI (48-hour, MITT Without STEMI)?
A: 256 (6.6)

Q: What about the “Mortality/MI/IDR (primary endpoint)” value (48-hour, MITT Without STEMI) of the same compound?
A: 276 (7.1)

Q: What about the “Q-wave MI” value (48-hour, MITT Without STEMI) of the same compound?
A: 10 (0.3)

Q: And the Stent thrombosis (48-hour, MITT Without STEMI)?
A: 11 (0.3)

Q: What about the Stroke (48-hour, MITT Without STEMI) of the same compound?
A: 7 (0.2)

Q: What about the “Mortality/Q-wave MI/IDR” value [1] of the same compound?
A: 34 (0.9)

Q: What about the “Mortality/Q-wave MI/Stent thrombosis” value [1] of the same compound?
A: 23 (0.6)

Q: What about the All-cause mortality (48 hours, ITT) of the same compound?
A: 11 (0.2) no. (%)

Q: What about the IDR (48 hours, ITT) of the same compound?
A: 31 (0.7) no. (%)

Q: And the MI (48 hours, ITT)?
A: 265 (6.0) no. (%)

Q: What about the Mortality/MI/IDR (48 hours, ITT) of the same compound?
A: 297 (6.7) no. (%)

Q: And the “Mortality/Q-wave MI/IDR” value (48 hours, ITT)?
A: 48 (1.1) no. (%)

Q: And the “Mortality/Q-wave MI/Stent thrombosis” value (48 hours, ITT)?
A: 33 (0.7) no. (%)

Q: And the “Q-wave MI” value (48 hours, ITT)?
A: 10 (0.2) no. (%)

Q: And the Stent thrombosis (48 hours, ITT)?
A: 15 (0.3) no. (%)

Q: And the Stroke (48 hours, ITT)?
A: 8 (0.2) no. (%)

Q: And the All-cause mortality (48 hours, ITT With STEMI)?
A: 5 (1.0) no. (%)

Q: And the IDR (48 hours, ITT With STEMI)?
A: 8 (1.6) no. (%)

Q: What about the MI (48 hours, ITT With STEMI) of the same compound?
A: 9 (1.8) no. (%)

Q: What about the Mortality/MI/IDR (48 hours, ITT With STEMI) of the same compound?
A: 20 (3.9) no. (%)

Q: And the “Mortality/Q-wave MI/IDR” value (48 hours, ITT With STEMI)?
A: 13 (2.6) no. (%)

Q: What about the “Mortality/Q-wave MI/Stent thrombosis” value (48 hours, ITT With STEMI) of the same compound?
A: 9 (1.8) no. (%)

Q: And the “Q-wave MI” value (48 hours, ITT With STEMI)?
A: 0 (0.0) no. (%)

Q: And the Stent thrombosis (48 hours, ITT With STEMI)?
A: 4 (0.8) no. (%)

Q: And the Stroke (48 hours, ITT With STEMI)?
A: 1 (0.2) no. (%)

Q: What about the All-cause mortality (48 hours, ITT Without STEMI) of the same compound?
A: 6 (0.2) no. (%)

Q: And the IDR (48 hours, ITT Without STEMI)?
A: 23 (0.6) no. (%)

Q: And the MI (48 hours, ITT Without STEMI)?
A: 256 (6.5) no. (%)

Q: What about the Mortality/MI/IDR (48 hours, ITT Without STEMI) of the same compound?
A: 277 (7.1) no. (%)

Q: What about the “Mortality/Q-wave MI/IDR” value (48 hours, ITT Without STEMI) of the same compound?
A: 35 (0.9) no. (%)

Q: What about the “Mortality/Q-wave MI/Stent thrombosis” value (48 hours, ITT Without STEMI) of the same compound?
A: 24 (0.6) no. (%)

Q: What about the “Q-wave MI” value (48 hours, ITT Without STEMI) of the same compound?
A: 10 (0.3) no. (%)

Q: What about the Stent thrombosis (48 hours, ITT Without STEMI) of the same compound?
A: 11 (0.3) no. (%)

Q: What about the Stroke (48 hours, ITT Without STEMI) of the same compound?
A: 7 (0.2) no. (%)

Q: And the All-cause mortality (48 hours, MITT)?
A: 9 (0.2) no. (%)

Q: What about the IDR (48 hours, MITT) of the same compound?
A: 30 (0.7) no. (%)

Q: And the MI (48 hours, MITT)?
A: 264 (6.1) no. (%)

Q: And the Mortality/MI/IDR (48 hours, MITT)?
A: 293 (6.8) no. (%)

Q: What about the “Mortality/Q-wave MI/IDR” value (48 hours, MITT) of the same compound?
A: 45 (1.0) no. (%)

Q: And the “Mortality/Q-wave MI/Stent thrombosis” value (48 hours, MITT)?
A: 31 (0.7) no. (%)

Q: What about the “Q-wave MI” value (48 hours, MITT) of the same compound?
A: 10 (0.2) no. (%)

Q: What about the Stent thrombosis (48 hours, MITT) of the same compound?
A: 15 (0.3) no. (%)

Q: What about the Stroke (48 hours, MITT) of the same compound?
A: 7 (0.2) no. (%)

Q: What about the All-cause mortality (48 hours, MITT With STEMI) of the same compound?
A: 4 (0.9) no. (%)

Q: And the IDR (48 hours, MITT With STEMI)?
A: 7 (1.6) no. (%)

Q: What about the MI (48 hours, MITT With STEMI) of the same compound?
A: 8 (1.8) no. (%)

Q: What about the Mortality/MI/IDR (48 hours, MITT With STEMI) of the same compound?
A: 17 (3.8) no. (%)

Q: And the “Mortality/Q-wave MI/IDR” value (48 hours, MITT With STEMI)?
A: 11 (2.5) no. (%)

Q: And the “Mortality/Q-wave MI/Stent thrombosis” value (48 hours, MITT With STEMI)?
A: 8 (1.8) no. (%)

Q: And the “Q-wave MI” value (48 hours, MITT With STEMI)?
A: 0 (0.0) no. (%)

Q: What about the Stent thrombosis (48 hours, MITT With STEMI) of the same compound?
A: 4 (0.9) no. (%)

Q: What about the Stroke (48 hours, MITT With STEMI) of the same compound?
A: 0 (0.0) no. (%)

Q: And the All-cause mortality (48 hours, MITT Without STEMI)?
A: 5 (0.1) no. (%)

Q: What about the IDR (48 hours, MITT Without STEMI) of the same compound?
A: 23 (0.6) no. (%)

Q: And the MI (48 hours, MITT Without STEMI)?
A: 256 (6.6) no. (%)

Q: What about the “Mortality/MI/IDR (Prespecified primary endpoint)” value (48 hours, MITT Without STEMI) of the same compound?
A: 276 (7.1) no. (%)

Q: What about the “Mortality/Q-wave MI/IDR” value (48 hours, MITT Without STEMI) of the same compound?
A: 34 (0.9) no. (%)

Q: What about the “Mortality/Q-wave MI/Stent thrombosis” value (48 hours, MITT Without STEMI) of the same compound?
A: 23 (0.6) no. (%)

Q: And the “Q-wave MI” value (48 hours, MITT Without STEMI)?
A: 10 (0.3) no. (%)

Q: And the Stent thrombosis (48 hours, MITT Without STEMI)?
A: 11 (0.3) no. (%)

Q: What about the Stroke (48 hours, MITT Without STEMI) of the same compound?
A: 7 (0.2) no. (%)

Q: And the “primary composite of all-cause mortality, MI, or ischemia-driven revascularization” value (48 hours, MITT Without STEMI)?
A: 7.1%

Q: And the All-cause mortality (48 hours, Safety population)?
A: 9 (0.2) no. (%)

Q: And the IDR (48 hours, Safety population)?
A: 30 (0.7) no. (%)

Q: And the MI (48 hours, Safety population)?
A: 265 (6.1) no. (%)

Q: And the Mortality/MI/IDR (48 hours, Safety population)?
A: 294 (6.7) no. (%)

Q: And the “Mortality/Q-wave MI/IDR” value (48 hours, Safety population)?
A: 45 (1.0) no. (%)

Q: What about the “Mortality/Q-wave MI/Stent thrombosis” value (48 hours, Safety population) of the same compound?
A: 31 (0.7) no. (%)

Q: And the “Q-wave MI” value (48 hours, Safety population)?
A: 10 (0.2) no. (%)

Q: What about the Stent thrombosis (48 hours, Safety population) of the same compound?
A: 15 (0.3) no. (%)

Q: And the Stroke (48 hours, Safety population)?
A: 7 (0.2) no. (%)

Q: And the All-cause mortality (30 days, ITT)?
A: 47 (1.1) no. (%)

Q: What about the IDR (30 days, ITT) of the same compound?
A: 69 (1.6) no. (%)

Q: And the MI (30 days, ITT)?
A: 293 (6.7) no. (%)

Q: What about the Mortality/MI/IDR (30 days, ITT) of the same compound?
A: 373 (8.5) no. (%)

Q: And the “Mortality/Q-wave MI/IDR” value (30 days, ITT)?
A: 119 (2.7) no. (%)

Q: And the “Mortality/Q-wave MI/Stent thrombosis” value (30 days, ITT)?
A: 82 (1.9) no. (%)

Q: And the “Q-wave MI” value (30 days, ITT)?
A: 15 (0.3) no. (%)

Q: And the Stent thrombosis (30 days, ITT)?
A: 30 (0.7) no. (%)

Q: What about the All-cause mortality (30 days, ITT With STEMI) of the same compound?
A: 16 (3.2) no. (%)
